Assay results from ChEMBL document CHEMBL1148042, “Novel bioactive diterpenoids from Aframomum aulacocarpos” (1994).
Values after ≈ are worked out from the molar mass of the structure shown.

Legend:
Format in all cases: functional
[1] = test system: Rhizomucor miehei; assay: Antifungal activity against Mucor miehei by plate diffusion assay
[2] = test system: L1210; assay: Cytotoxicity against mouse L1210 cells; settings: read-out: ED50 (the source's name)
[3] = test system: Bacillus subtilis; assay: Antibacterial activity against Bacillus subtilis ATCC 6633 by serial dilution assay

MIC [1] [µg/mL] | MIC [3] [µg/mL] | Structure (SMILES) | EC50 [2] [µg/mL]
50 (≈ 131 µM) | 25 (≈ 65.7 µM) | COC(=O)/C(=C/C[C@H]1[C@]2(CO2)C[C@@H](O)[C@H]2C(C)(C)[C@@H](O)CC[C@@]21C)C1CO1 (stereo partly drawn) [AULACOCARPIN B] | 25 (≈ 65.7 µM)
50 (≈ 137 µM) | 25 (≈ 68.6 µM) | COC(=O)/C(=C/C[C@H]1[C@@]2(CC[C@H]3C(C)(C)[C@@H](O)CC[C@@]31C)CO2)C1CO1 (stereo partly drawn) [AULACOCARPINE A] | –
50 (≈ 150 µM) | 25 (≈ 75.2 µM) | CC1(C)[C@@H](O)CC[C@]2(C)C3=C(CC[C@@H]12)CO[C@@H](C1=CCOC1=O)C3 [AULACOCARPINOLIDE] | 12.5 (≈ 37.6 µM)
